In ChEMBL document CHEMBL1240392 (Antimicrob Agents Chemother, 2010):
Values after ≈ are worked out from the molar mass of the structure shown. Active and inactive are the calls of the source. The calls are words filed in the database; no cut-off is given here.

Columns and labels:
[1] = AUC in New Zealand rabbit meningitis model at 120 mg/kg, im; format: ADME, organism-based, Oryctolagus cuniculus; set-up: dose 120 mg/kg, route intramuscular; details: in vivo
[2] = Cmax in C57BL/6 mouse pneumonia model at 30 mg/kg, im; format: ADME, organism-based; set-up: dose 30 mg/kg, route intramuscular; details: in vivo
in vivo = details: New Zealand, rabbit, im, 120 mg/kg
Description: Cmax in New Zealand rabbit meningitis model at 120 mg/kg, im

[3] = Half life in C57BL/6 mouse pneumonia model at 30 mg/kg, im; format: ADME, organism-based; set-up: dose 30 mg/kg, route intramuscular; details: in vivo
[4] = Half life in New Zealand rabbit meningitis model at 120 mg/kg, im; format: ADME, organism-based, Oryctolagus cuniculus; set-up: dose 120 mg/kg, route intramuscular; details: in vivo
[5] = AUC in C57BL/6 mouse pneumonia model at 30 mg/kg, im; format: ADME, organism-based; set-up: dose 30 mg/kg, route intramuscular; details: in vivo
Acinetobacter baumannii [6] = assay: Antimicrobial activity against Acinetobacter baumannii 1327; format: functional
[7] = Ratio of Cmax to MIC for Acinetobacter baumannii 1327 in pharmacokinetic-pharmacodynamic New Zealand rabbit meningitis model at 120 mg/kg, im; format: functional; details: route intramuscular
Acinetobacter baumannii [8] = assay: Antimicrobial activity against Acinetobacter baumannii 940; format: functional
[9] = Ratio of AUC to MIC for Acinetobacter baumannii 1327 in pharmacokinetic-pharmacodynamic New Zealand rabbit meningitis model at 120 mg/kg, im; format: functional; details: route intramuscular
Acinetobacter baumannii [10] = assay: Antimicrobial activity against Acinetobacter baumannii 506 after 24 hrs by time-kill assay; format: functional, organism-based
[11] = T>MIC in Acinetobacter baumannii infected C57BL/6 mouse pneumonia model at 30 mg/kg, im; format: functional; details: route intramuscular
[12] = T>MIC in Acinetobacter baumannii infected New Zealand rabbit meningitis model at 120 mg/kg, im; format: functional; details: route intramuscular
Acinetobacter baumannii [13] = assay: Antimicrobial activity against Acinetobacter baumannii 940 after 24 hrs by time-kill assay; format: functional, organism-based
Acinetobacter baumannii [14] = assay: Antimicrobial activity against Acinetobacter baumannii infected in C57BL/6 mouse model assessed as reduction in bacterial count in blood at total dose of 120 mg/kg/day, im administered as four divided doses after 72 hrs; format: functional; set-up: scale not given: the % may be the effect or the level left; details: route intramuscular
Acinetobacter baumannii [15] = assay: Antimicrobial activity against Acinetobacter baumannii clinical isolate; format: functional
Acinetobacter baumannii [16] = assay: Antimicrobial activity against Acinetobacter baumannii 1327 after 24 hrs by time-kill assay; format: functional, organism-based
Acinetobacter baumannii [17] = assay: Antimicrobial activity against Acinetobacter baumannii 1417 after 24 hrs by time-kill assay; format: functional, organism-based
Acinetobacter baumannii [18] = assay: Antimicrobial activity against Acinetobacter baumannii 506; format: functional
[19] = Ratio of Cmax to MIC for Acinetobacter baumannii 1327 in pharmacokinetic-pharmacodynamic C57BL/6 mouse pneumonia model at 30 mg/kg, im; format: functional; details: route intramuscular
[20] = Ratio of AUC to MIC for Acinetobacter baumannii 1327 in pharmacokinetic-pharmacodynamic C57BL/6 mouse pneumonia model at 30 mg/kg, im; format: functional; details: route intramuscular
Acinetobacter baumannii [21] = assay: Antimicrobial activity against Acinetobacter baumannii infected in C57BL/6 mouse model assessed as reduction in bacterial count per gram of lung at total dose of 120 mg/kg/day, im administered as four divided doses after 72 hrs (RVb = 10.6+/-0.27); format: functional, organism-based
Acinetobacter baumannii [22] = assay: Antimicrobial activity against Acinetobacter baumannii 1417; format: functional
Acinetobacter baumannii [23] = assay: Antibacterial activity against Acinetobacter baumannii infected in C57BL/6 mouse model assessed as survival rate at total dose of 120 mg/kg/day, im administered as four divided doses measured after 72 hrs post last dose relative to control; format: functional; details: route intramuscular
Acinetobacter baumannii [24] = assay: Antimicrobial activity against Acinetobacter baumannii infected in C57BL/6 mouse model assessed as reduction in bacterial count per gram of lung at total dose of 100 mg/kg/day, ip administered as four divided doses after 72 hrs (RVb = 10.6+/-0.27); format: functional, organism-based
Acinetobacter baumannii [25] = assay: Antibacterial activity against Acinetobacter baumannii 1327 infected in New Zealand rabbit meningitis model assessed as reduction in bacterial count in CSF at 25 mg/kg, iv measured after 2 hrs of last dose (RVb = 5.1); format: functional
[26] = Cmax in New Zealand rabbit meningitis model at 25 mg/kg, iv; format: ADME, organism-based, Oryctolagus cuniculus; set-up: dose 25 mg/kg, route intravenous; details: in vivo
Acinetobacter baumannii [27] = assay: Antibacterial activity against Acinetobacter baumannii infected in C57BL/6 mouse model assessed as survival rate at total dose of 100 mg/kg/day, ip administered as four divided doses measured after 72 hrs post last dose; format: functional; details: route intraperitoneal
Acinetobacter baumannii [28] = assay: Antibacterial activity against Acinetobacter baumannii 1327 infected in New Zealand rabbit meningitis model assessed as reduction in bacterial count in CSF at 25 mg/kg, iv measured after 6 hrs of last dose (RVb = 5.5); format: functional
[29] = AUC in C57BL/6 mouse pneumonia model at 25 mg/kg, ip; format: ADME, organism-based; set-up: dose 25 mg/kg, route intraperitoneal; details: in vivo
Oryctolagus cuniculus = assay: Antiinflammatory activity in Acinetobacter baumannii 1327-infected New Zealand rabbit meningitis model assessed as in WBC count at 25 mg/kg, iv after 6 hrs (RVb = 1 cells/ul); format: functional
Acinetobacter baumannii [30] = assay: Antibacterial activity against Acinetobacter baumannii 1327 infected in New Zealand rabbit meningitis model assessed as reduction in bacterial count in CSF at 25 mg/kg, iv measured after 4 hrs of last dose (RVb = 5.2); format: functional
[31] = T>MIC in Acinetobacter baumannii infected C57BL/6 mouse pneumonia model at 25 mg/kg, iv; format: functional
Acinetobacter baumannii [32] = assay: Antimicrobial activity against Acinetobacter baumannii infected in C57BL/6 mouse model assessed as reduction in bacterial count in blood at total dose of 100 mg/kg/day, ip administered as four divided doses after 72 hrs; format: functional; set-up: scale not given: the % may be the effect or the level left; details: route intraperitoneal
[33] = T>MIC in Acinetobacter baumannii infected New Zealand rabbit meningitis model at 25 mg/kg, iv; format: functional
[34] = Cmax in C57BL/6 mouse pneumonia model at 25 mg/kg, ip; format: ADME, organism-based; set-up: dose 25 mg/kg, route intraperitoneal; details: in vivo
[35] = AUC in New Zealand rabbit meningitis model at 25 mg/kg, iv; format: ADME, organism-based, Oryctolagus cuniculus; set-up: dose 25 mg/kg, route intravenous; details: in vivo

C[C@@H](O)[C@H]1C(=O)N2C(C(=O)O)=C(SCCN=CN)C[C@H]12 [IMIPENEM ANHYDROUS]
AUC [1]: 50400 ng·h/mL
Cmax [2]: 23200 ng/mL
Cmax (in vivo): 25400 ng/mL
half-life [3]: 0.26 h
half-life [4]: 1.74 h
AUC [5]: 11300 ng·h/mL

C[C@@H](O)[C@H]1C(=O)N2C(C(=O)O)=C(SCCNC=N)C[C@H]12 [IMIPENEM ANHYDROUS]
MBC (Acinetobacter baumannii [6]): 32 µg/mL (≈ 107 µM)
MIC (Acinetobacter baumannii [6]): 32 µg/mL (≈ 107 µM)
Ratio [7]: 0.79
MBC (Acinetobacter baumannii [8]): 32 µg/mL (≈ 107 µM)
MIC (Acinetobacter baumannii [8]): 32 µg/mL (≈ 107 µM)
Ratio [9]: 1.58
Activity (Acinetobacter baumannii [10]): Active
T>MIC [11]: 0 h
T>MIC [12]: 0 h
Activity (Acinetobacter baumannii [13]): Active
Activity (Acinetobacter baumannii [14]): 30.8%
MIC (Acinetobacter baumannii [15]): ≥ 64 µg/mL
Activity (Acinetobacter baumannii [16]): Active
Activity (Acinetobacter baumannii [17]): Active
MBC (Acinetobacter baumannii [18]): 32 µg/mL (≈ 107 µM)
MIC (Acinetobacter baumannii [18]): 32 µg/mL (≈ 107 µM)
Ratio [19]: 0.73
Ratio [20]: 0.35
Activity (Acinetobacter baumannii [21]): Active
MBC (Acinetobacter baumannii [22]): 32 µg/mL (≈ 107 µM)
MIC (Acinetobacter baumannii [22]): 32 µg/mL (≈ 107 µM)
survival at 120 mg/kg/day (Acinetobacter baumannii [23]): 28.6%

CO[C@H]1/C=C/O[C@@]2(C)Oc3c(C)c(O)c4c(O)c(c(/C=N/N5CCN(C)CC5)c(O)c4c3C2=O)NC(=O)/C(C)=C\C=C\[C@H](C)[C@H](O)[C@@H](C)[C@@H](O)[C@@H](C)[C@H](OC(C)=O)[C@@H]1C [RIFAMPIN]
MBC (Acinetobacter baumannii [6]): 8 µg/mL (≈ 9.72 µM)
MIC (Acinetobacter baumannii [6]): 4 µg/mL (≈ 4.86 µM)
MBC (Acinetobacter baumannii [8]): 4 µg/mL (≈ 4.86 µM)
MIC (Acinetobacter baumannii [8]): 4 µg/mL (≈ 4.86 µM)
Activity (Acinetobacter baumannii [10]): Active
Activity (Acinetobacter baumannii [13]): Active
Activity (Acinetobacter baumannii [24]): Active
Activity (Acinetobacter baumannii [16]): Active
Activity (Acinetobacter baumannii [25]): 5.1 log10CFU/ml
Cmax [26]: 16600 ng/mL
survival at 100 mg/kg/day (Acinetobacter baumannii [27]): 71.4%
Activity (Acinetobacter baumannii [17]): Active
MBC (Acinetobacter baumannii [18]): 4 µg/mL (≈ 4.86 µM)
MIC (Acinetobacter baumannii [18]): 4 µg/mL (≈ 4.86 µM)
Activity (Acinetobacter baumannii [28]): 3.5 log10CFU/ml
AUC [29]: 24800 ng·h/mL
Activity (Oryctolagus cuniculus): 8.2%
Activity (Acinetobacter baumannii [30]): 4.5 log10CFU/ml
T>MIC [31]: 7.5 h
Activity (Acinetobacter baumannii [32]): 78.6%
T>MIC [33]: 6.54 h
MBC (Acinetobacter baumannii [22]): 8 µg/mL (≈ 9.72 µM)
MIC (Acinetobacter baumannii [22]): 8 µg/mL (≈ 9.72 µM)
Cmax [34]: 15800 ng/mL
AUC [35]: 40300 ng·h/mL
